Results as given in patent US12479840B2, “HMG-CoA reductase degradation inducing compound” (Uppthera, priority 2020, dated 2025).

target: T1, HMG-CoA reductase (Homo sapiens, UniProt P04035); test: HMG-CoA reductase (HMGCR) degradation in HepG2 cells by western blotting; type: cell-based; conditions: treated for 18 hours, ratio of HMG-CoA reductase to GAPDH
T1 construct: endogenous in cells; host or cells: HepG2 (Korea Cell Line Bank)
T1 sequence (P04035 1-888): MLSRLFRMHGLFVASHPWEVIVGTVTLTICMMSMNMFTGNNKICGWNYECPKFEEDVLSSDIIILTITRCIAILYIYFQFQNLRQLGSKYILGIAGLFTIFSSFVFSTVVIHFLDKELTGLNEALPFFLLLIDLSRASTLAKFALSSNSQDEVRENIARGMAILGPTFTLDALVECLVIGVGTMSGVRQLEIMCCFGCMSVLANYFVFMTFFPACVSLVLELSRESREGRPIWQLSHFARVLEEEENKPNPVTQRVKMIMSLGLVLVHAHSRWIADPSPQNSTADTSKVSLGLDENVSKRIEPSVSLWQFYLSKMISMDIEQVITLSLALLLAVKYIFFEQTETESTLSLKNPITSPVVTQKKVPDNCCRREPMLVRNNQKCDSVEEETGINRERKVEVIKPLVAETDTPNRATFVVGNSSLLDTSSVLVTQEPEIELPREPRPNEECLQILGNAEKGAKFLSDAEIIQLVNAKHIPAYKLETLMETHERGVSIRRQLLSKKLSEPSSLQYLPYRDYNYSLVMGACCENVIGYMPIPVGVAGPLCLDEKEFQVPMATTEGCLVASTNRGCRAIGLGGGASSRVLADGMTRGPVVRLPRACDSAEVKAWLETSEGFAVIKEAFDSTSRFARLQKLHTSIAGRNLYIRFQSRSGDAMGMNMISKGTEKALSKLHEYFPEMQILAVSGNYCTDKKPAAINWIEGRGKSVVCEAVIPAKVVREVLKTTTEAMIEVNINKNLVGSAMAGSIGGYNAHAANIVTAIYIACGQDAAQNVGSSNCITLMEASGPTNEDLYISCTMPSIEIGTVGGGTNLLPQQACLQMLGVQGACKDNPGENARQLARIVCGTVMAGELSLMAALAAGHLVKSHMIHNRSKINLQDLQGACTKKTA
In short: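 HepG2 cells (passage P105–P110) treated 18 hours with compounds in 10-point three-fold dilutions from 3 μM. RIPA lysates (15 μg protein, BCA-quantified) run on SDS-PAGE and immunoblotted for HMGCR (1:500) with GAPDH (1:20000) as loading control, primary antibodies 16 hours at 4° C.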

SMILES	DC50 [nM]
Cc1ncsc1-c1ccc(CNC(=O)[C@@H]2C[C@@H](O)CN2C(=O)[C@@H](NC(=O)C2(F)CC2)C(C)(C)C)c(OCCOCCOCCOCCOCCNC(=O)O[C@H]2C[C@@H](C)C=C3C=C[C@H](C)[C@H](CC[C@@H]4C[C@@H](O[Si](C)(C)C(C)(C)C)CC(=O)O4)[C@H]32)c1 [Compound 30, (1S,3R,7S,8S,8aR)-8-(2-((2R,4R)-4-((tert-butyldimethylsilyl)oxy)-6-oxotetrahydro-2H-pyran-2-yl)ethyl)-3,7-dimethyl-1,2,3,7,8,8a-hexahydronaphthalen-1-yl (14-(2-(((2S,4R)-1-((S)-2-(1-fluorocyclopropane-1-carboxamido)-3,3-dimethylbutanoyl)-4-hydroxypyrrolidine-2-carboxamido)methyl)-5-(4-methylthiazol-5-yl)phenoxy)-3,6,9,12-tetraoxatetradecyl)carbamate]	50 to 500

same assay, conditions: treated for 18 hours, ratio of HMG-CoA reductase to GAPDH, read-out: DC50

SMILES	DC50 [nM]
C[C@H]1C=C2C=C[C@H](C)[C@H](CC[C@@H]3C[C@@H](O)CC(=O)O3)[C@H]2[C@@H](OC(=O)NCCCCCCCCNc2cccc3c2C(=O)N(C2CCC(=O)NC2=O)C3=O)C1 (stereo partly drawn) [Compound 61, (1S,3R,7S,8S,8aR)-8-(2-((2R,4R)-4-hydroxy-6-oxotetrahydro-2H-pyran-2-yl)ethyl)-3,7-dimethyl-1,2,3,7,8,8a-hexahydronaphthalen-1-yl (8-((2-(2,6-dioxopiperidin-3-yl)-1,3-dioxoisoindolin-4-yl)amino)octyl)carbamate]	< 50
C[C@H]1C=C2C=C[C@H](C)[C@H](CC[C@@H]3C[C@@H](O)CC(=O)O3)[C@H]2[C@@H](OC(=O)N2CCC(CCOCCNc3cccc4c3C(=O)N(C3CCC(=O)NC3=O)C4=O)CC2)C1 (stereo partly drawn) [Compound 85, (1S,3R,7S,8S,8aR)-8-(2-((2R,4R)-4-hydroxy-6-oxotetrahydro-2H-pyran-2-yl)ethyl)-3,7-dimethyl-1,2,3,7,8,8a-hexahydronaphthalen-1-yl4-(2-(2-((2-(2,6-dioxopiperidin-3-yl)-1,3-dioxoisoindolin-4-yl)amino)ethoxy)ethyl)piperidine-1-carboxylate]	< 50
CN[C@@H](C)C(=O)N[C@H](C(=O)N1CCC[C@H]1c1nc(C(=O)c2cccc(OCCOCCOCCNC(=O)O[C@H]3C[C@@H](C)C=C4C=C[C@H](C)[C@H](CC[C@@H]5C[C@@H](O)CC(=O)O5)[C@H]43)c2)cs1)C1CCCCC1 [Compound 31, (1S,3R,7S,8S,8aR)-8-(2-((2R,4R)-4-hydroxy-6-oxotetrahydro-2H-pyran-2-yl)ethyl)-3,7-dimethyl-1,2,3,7,8,8a-hexahydronaphthalen-1-yl (2-(2-(2-(3-(2-((S)-1-((S)-2-cyclohexyl-2-((S)-2-(methylamino)propanamido)acetyl)pyrrolidin-2-yl)thiazole-4-carbonyl)phenoxy)ethoxy)ethoxy)ethyl)carbamate]	< 50
C[C@H]1C=C2C=C[C@H](C)[C@H](CC[C@@H]3C[C@@H](O)CC(=O)O3)[C@H]2[C@@H](OC(=O)NCCOCCOCCOCCNc2ccccc2)C1 [Compound 39, (1S,3R,7S,8S,8aR)-8-(2-((2R,4R)-4-hydroxy-6-oxotetrahydro-2H-pyran-2-yl)ethyl)-3,7-dimethyl-1,2,3,7,8,8a-hexahydronaphthalen-1-yl (2-(2-(2-(2-(phenylamino)ethoxy)ethoxy)ethoxy)ethyl)carbamate]	> 500
C[C@H]1C=C2C=C[C@H](C)[C@H](CC[C@@H]3C[C@@H](O)CC(=O)O3)[C@H]2[C@@H](OC(=O)NCCCCCCCC(=O)Nc2cccc3c2C(=O)N(C2CCC(=O)NC2=O)C3=O)C1 (stereo partly drawn) [Compound 77, (1S,3R,7S,8S,8aR)-8-(2-((2R,4R)-4-hydroxy-6-oxotetrahydro-2H-pyran-2-yl)ethyl)-3,7-dimethyl-1,2,3,7,8,8a-hexahydronaphthalen-1-yl (8-((2-(2,6-dioxopiperidin-3-yl)-1,3-dioxoisoindolin-4-yl)amino)-8-oxooctyl)carbamate]	< 50
C[C@H]1C=C2C=C[C@H](C)[C@H](CC[C@@H]3C[C@@H](O)CC(=O)O3)[C@H]2[C@@H](OC(=O)NCCCCCCCNc2cccc3c2C(=O)N(C2CCC(=O)NC2=O)C3=O)C1 (stereo partly drawn) [Compound 60, (1S,3R,7S,8S,8aR)-8-(2-((2R,4R)-4-hydroxy-6-oxotetrahydro-2H-pyran-2-yl)ethyl)-3,7-dimethyl-1,2,3,7,8,8a-hexahydronaphthalen-1-yl (7-((2-(2,6-dioxopiperidin-3-yl)-1,3-dioxoisoindolin-4-yl)amino)heptyl)carbamate]	50 to 500
C[C@H]1C=C2C=C[C@H](C)[C@H](CC[C@@H]3C[C@@H](O[Si](C)(C)C(C)(C)C)CC(=O)O3)[C@H]2[C@@H](OC(=O)NCCCCCCCCCCCNc2cccc3c2C(=O)N(C2CCC(=O)NC2=O)C3=O)C1 (stereo partly drawn) [Compound 57, (1S,3R,7S,8S,8aR)-8-(2-((2R,4R)-4-((tert-butyldimethylsilyl)oxy)-6-oxotetrahydro-2H-pyran-2-yl)ethyl)-3,7-dimethyl-1,2,3,7,8,8a-hexahydronaphthalen-1-yl (11-((2-(2,6-dioxopiperidin-3-yl)-1,3-dioxoisoindolin-4-yl)amino)undecyl)carbamate]	< 50

Other lines, results leading:

DC50 [nM]	SMILES
< 50	C[C@H]1C=C2C=C[C@H](C)[C@H](CC[C@@H]3C[C@@H](O)CC(=O)O3)[C@H]2[C@@H](OC(=O)NCCOCCOCCOCCOCCNc2cccc3c2C(=O)N(C2CCC(=O)NC2=O)C3=O)C1 (stereo partly drawn) [Compound 42, (1S,3R,7S,8S,8aR)-8-(2-((2R,4R)-4-hydroxy-6-oxotetrahydro-2H-pyran-2-yl)ethyl)-3,7-dimethyl-1,2,3,7,8,8a-hexahydronaphthalen-1-yl (14-((2-(2,6-dioxopiperidin-3-yl)-1,3-dioxoisoindolin-4-yl)amino)-3,6,9,12-tetraoxatetradecyl)carbamate]
50 to 500	C[C@H]1C=C2C=C[C@H](C)[C@H](CC[C@@H]3C[C@@H](O)CC(=O)O3)[C@H]2[C@@H](OC(=O)NCCCCCCNc2cccc3c2C(=O)N(C2CCC(=O)NC2=O)C3=O)C1 (stereo partly drawn) [Compound 59, (1S,3R,7S,8S,8aR)-8-(2-((2R,4R)-4-hydroxy-6-oxotetrahydro-2H-pyran-2-yl)ethyl)-3,7-dimethyl-1,2,3,7,8,8a-hexahydronaphthalen-1-yl (6-((2-(2,6-dioxopiperidin-3-yl)-1,3-dioxoisoindolin-4-yl)amino)hexyl)carbamate]
< 50	Cc1ncsc1-c1ccc(CNC(=O)[C@@H]2C[C@@H](O)CN2C(=O)[C@@H](NC(=O)C2(F)CC2)C(C)(C)C)c(OCCOCCOCCOCCOCCNC(=O)O[C@H]2C[C@@H](C)C=C3C=C[C@H](C)[C@H](CC[C@@H]4C[C@@H](O)CC(=O)O4)[C@H]32)c1 [Compound 26, (1S,3R,7S,8S,8aR)-8-(2-((2R,4R)-4-hydroxy-6-oxotetrahydro-2H-pyran-2-yl)ethyl)-3,7-dimethyl-1,2,3,7,8,8a-hexahydronaphthalen-1-yl (14-(2-(((2S,4R)-1-((S)-2-(1-fluorocyclopropane-1-carboxamido)-3,3-dimethylbutanoyl)-4-hydroxypyrrolidine-2-carboxamido)methyl)-5-(4-methylthiazol-5-yl)phenoxy)-3,6,9,12-tetraoxatetradecyl)carbamate]
< 50	C[C@H]1C=C2C=C[C@H](C)[C@H](CC[C@@H]3C[C@@H](O)CC(=O)O3)[C@H]2[C@@H](OC(=O)C(C)(C)CCC(=O)NCCOCCOCCNc2cccc3nnn(C4CCC(=O)NC4=O)c(=O)c23)C1 (stereo partly drawn) [Compound 152, (1S,3R,7S,8S,8aR)-8-(2-((2R,4R)-4-hydroxy-6-oxotetrahydro-2H-pyran-2-yl)ethyl)-3,7-dimethyl-1,2,3,7,8,8a-hexahydronaphthalen-1-yl 5-((2-(2-(2-((3-(2,6-dioxopiperidin-3-yl)-4-oxo-3,4-dihydrobenzo[d][1,2,3]triazin-5-yl)amino)ethoxy)ethoxy)ethyl)amino)-2,2-dimethyl-5-oxopentanoate]
50 to 500	C[C@H]1C=C2C=C[C@H](C)[C@H](CC[C@@H]3C[C@@H](O)CC(=O)O3)[C@H]2[C@@H](OC(=O)NCCCCCNc2cccc3c2C(=O)N(C2CCC(=O)NC2=O)C3=O)C1 (stereo partly drawn) [Compound 58, (1S,3R,7S,8S,8aR)-8-(2-((2R,4R)-4-hydroxy-6-oxotetrahydro-2H-pyran-2-yl)ethyl)-3,7-dimethyl-1,2,3,7,8,8a-hexahydronaphthalen-1-yl (5-((2-(2,6-dioxopiperidin-3-yl)-1,3-dioxoisoindolin-4-yl)amino)pentyl)carbamate]
